Laboratory results as given in paper PMC11995216, “End-to-End Backbone Cyclization Enhances Passive Permeability of bRo5 Oligomeric Depsipeptides with Nonlinear Size Dependence” (ACS Medicinal Chemistry Letters, 2025).
Where “and” joins values, the source holds several entries; their conditions need not be identical. Identical values can stand only once. Like-named read-outs stand apart in the source and are kept apart here. Starred links: 1 amine or outer side, 2 acyl side, 3 side chain; linkers in the order of their positions; H or OH if unused. Non-standard residues stand in square brackets, D forms with d. Residues, ends and D or L forms follow the SMILES beside them. *: point of attachment. X2 = CCCCC[C@H](O*)C(=O)OCc1ccccc1; X1 = CCCCC[C@H](O[*:1])C(=O)[*:2]; Ahp(2) = CCCCC[C@H](N)C(=O)O; dNMeA = CN[C@H](C)C(=O)O; Boc = CC(C)(C)OC(=O)*

Legend:
[1] = calculated using Supplement Equation 1, UV detection
[2] = PAMPA, 500 uM
[3] = in vitro; details: PAMPA, Papp
[4] = UV detection
[5] = initial concentration 500 uM, UV detection
[6] = tested on: PAMPA; details: UV detection, initial concentration 500 uM
[7] = tested on: PAMPA; details: UV detection
[8] = Well 1 / [donor], Well 1, standard curve
[9] = Well 2 / [donor], Well 2, standard curve
[10] = Well 3 / [donor], Well 3, standard curve
[11] = Well 4 / [donor], Well 4, standard curve
[12] = Well 5 / [donor], Well 5, standard curve
[13] = Acceptor Concentration (uM) / [row 1]
[14] = Acceptor Concentration (uM) / [row 2]
[15] = Acceptor Concentration (uM) / [row 3]
[16] = Acceptor Concentration (uM) / [row 4]
[17] = Acceptor Concentration (uM) / [row 5]
[18] = Acceptor Concentration (uM) / [row 6]
[19] = Acceptor Concentration (uM) / [row 7]
[20] = Acceptor Concentration (uM) / [row 8]
[21] = Acceptor Concentration (uM) / [row 9]
[22] = Acceptor Concentration (uM) / [row 10]
[23] = Acceptor Concentration (uM) / experiment 1
[24] = Acceptor Concentration (uM) / experiment 2
[25] = Acceptor Concentration (uM) / experiment 3
[26] = Acceptor Concentration (uM) / experiment 4
[27] = Acceptor Concentration (uM) / experiment 5
[28] = Acceptor Concentration (uM) / experiment 6
[29] = Acceptor Concentration (uM) / experiment 7
[30] = Acceptor Concentration (uM) / experiment 8
[31] = Acceptor Concentration (uM) / experiment 9
[32] = Acceptor Concentration (uM) / experiment 10
[33] = Papp (x 10^-6 cm/s) / experiment 1
[34] = Papp (x 10^-6 cm/s) / experiment 2
[35] = Papp (x 10^-6 cm/s) / experiment 3
[36] = Papp (x 10^-6 cm/s) / experiment 4
[37] = Papp (x 10^-6 cm/s) / experiment 5
[38] = Papp (x 10^-6 cm/s) / experiment 6
[39] = Papp (x 10^-6 cm/s) / experiment 7
[40] = Papp (x 10^-6 cm/s) / experiment 8
[41] = Papp (x 10^-6 cm/s) / experiment 9
[42] = Papp (x 10^-6 cm/s) / experiment 10

## CCCCC[C@H](OC(=O)[C@@H](C)N(C)C(=O)[C@H](CCCCC)OC(=O)[C@@H](C)N(C)C(=O)[C@H](CCCCC)OC(=O)[C@@H](C)N(C)C(=O)[C@H](CCCCC)OC(=O)[C@@H](C)N(C)C(=O)OC(C)(C)C)C(=O)OCc1ccccc1 [Compound L1.4]
[1]; Well 1 / %T, Well 1
  %T: 0.25% (2×) and 0.31% (2×)
[1]; Well 2 / %T, Well 2
  %T: 0.3% (2×) and 0.25% (2×)
[1]; Well 3 / %T, Well 3
  %T: 0.3% (2×) and 0.28% (2×)
[1]; Well 4 / %T, Well 4
  %T: 0.31% (2×) and 0.32% (2×)
[1]; Well 5 / %T, Well 5
  %T: 0.33% (2×) and 0.26% (2×)
[2]
  Δ % diffusion: ↑14%
[3]
  Papp at 500 uM: 1.94 ± 0.22 ×10⁻⁶ cm/s
[4]; Well 1 / %R, Well 1
  % recovery: 94%
[4]; Well 2 / %R, Well 2
  % recovery: 87% (2×) and 92% (2×)
[4]; Well 3 / %R, Well 3
  % recovery: 99% (2×) and 87% (2×)
[4]; Well 4 / %R, Well 4
  % recovery: 93% (2×) and 85% (2×)
[4]; Well 5 / %R, Well 5
  % recovery: 87% (2×) and 86% (2×)
[5]; Well 1 / [donor], Well 1
  donor concentration after incubation: 417 µM and 390 µM
[5]; [8]
  donor concentration after incubation: 417 µM and 390 µM
[5]; Well 2 / [donor], Well 2
  donor concentration after incubation: 379 µM and 406 µM
[5]; [9]
  donor concentration after incubation: 379 µM and 406 µM
[5]; Well 3 / [donor], Well 3
  donor concentration after incubation: 432 µM and 382 µM
[5]; [10]
  donor concentration after incubation: 432 µM and 382 µM
[5]; Well 4 / [donor], Well 4
  donor concentration after incubation: 404 µM and 364 µM
[5]; [11]
  donor concentration after incubation: 404 µM and 364 µM
[5]; Well 5 / [donor], Well 5
  donor concentration after incubation: 372 µM and 379 µM
[5]; [12]
  donor concentration after incubation: 372 µM and 379 µM
[6]; [13]
  Acceptor Concentration: 52.3 µM
[6]; [14]
  Acceptor Concentration: 57.9 µM
[6]; [15]
  Acceptor Concentration: 64.4 µM
[6]; [16]
  Acceptor Concentration: 61.4 µM
[6]; [17]
  Acceptor Concentration: 62.2 µM
[6]; [18]
  Acceptor Concentration: 61.3 µM
[6]; [19]
  Acceptor Concentration: 51.5 µM
[6]; [20]
  Acceptor Concentration: 55 µM
[6]; [21]
  Acceptor Concentration: 59.1 µM
[6]; [22]
  Acceptor Concentration: 51.7 µM
[6]; [23]
  Acceptor Concentration: 52.3 µM
[6]; [24]
  Acceptor Concentration: 57.9 µM
[6]; [25]
  Acceptor Concentration: 64.4 µM
[6]; [26]
  Acceptor Concentration: 61.4 µM
[6]; [27]
  Acceptor Concentration: 62.2 µM
[6]; [28]
  Acceptor Concentration: 61.3 µM
[6]; [29]
  Acceptor Concentration: 51.5 µM
[6]; [30]
  Acceptor Concentration: 55 µM
[6]; [31]
  Acceptor Concentration: 59.1 µM
[6]; [32]
  Acceptor Concentration: 51.7 µM
[7]; Papp (x 10^-6 cm/s) / [row 1]
  Papp: 1.61 ×10⁻⁶ cm/s
[7]; Papp (x 10^-6 cm/s) / [row 2]
  Papp: 2.02 ×10⁻⁶ cm/s
[7]; Papp (x 10^-6 cm/s) / [row 3]
  Papp: 2.01 ×10⁻⁶ cm/s
[7]; Papp (x 10^-6 cm/s) / [row 4]
  Papp: 2.03 ×10⁻⁶ cm/s
[7]; Papp (x 10^-6 cm/s) / [row 5]
  Papp: 2.24 ×10⁻⁶ cm/s
[7]; Papp (x 10^-6 cm/s) / [row 6]
  Papp: 2.09 ×10⁻⁶ cm/s
[7]; Papp (x 10^-6 cm/s) / [row 7]
  Papp: 1.63 ×10⁻⁶ cm/s
[7]; Papp (x 10^-6 cm/s) / [row 8]
  Papp: 1.88 ×10⁻⁶ cm/s
[7]; Papp (x 10^-6 cm/s) / [row 9]
  Papp: 2.15 ×10⁻⁶ cm/s
[7]; Papp (x 10^-6 cm/s) / [row 10]
  Papp: 1.75 ×10⁻⁶ cm/s
[7]; [33]
  Papp: 1.61 ×10⁻⁶ cm/s
[7]; [34]
  Papp: 2.02 ×10⁻⁶ cm/s
[7]; [35]
  Papp: 2.01 ×10⁻⁶ cm/s
[7]; [36]
  Papp: 2.03 ×10⁻⁶ cm/s
[7]; [37]
  Papp: 2.24 ×10⁻⁶ cm/s
[7]; [38]
  Papp: 2.09 ×10⁻⁶ cm/s
[7]; [39]
  Papp: 1.63 ×10⁻⁶ cm/s
[7]; [40]
  Papp: 1.88 ×10⁻⁶ cm/s
[7]; [41]
  Papp: 2.15 ×10⁻⁶ cm/s
[7]; [42]
  Papp: 1.75 ×10⁻⁶ cm/s

## CCCCC[C@H](OC(=O)[C@@H](C)N(C)C(=O)[C@H](CCCCC)OC(=O)[C@@H](C)N(C)C(=O)[C@H](CCCCC)OC(=O)[C@@H](C)N(C)C(=O)[C@H](CCCCC)OC(=O)[C@@H](C)N(C)C(=O)[C@H](CCCCC)OC(=O)[C@@H](C)N(C)C(=O)OC(C)(C)C)C(=O)OCc1ccccc1 [Compound L1.5]
[1]; Well 1 / %T, Well 1
  %T: 0.33% and 0.28%
[1]; Well 2 / %T, Well 2
  %T: 0.24% and 0.25%
[1]; Well 3 / %T, Well 3
  %T: 0.27%
[1]; Well 4 / %T, Well 4
  %T: 0.27% and 0.29%
[1]; Well 5 / %T, Well 5
  %T: 0.24% and 0.29%
[2]
  Δ % diffusion: ↑4%
[3]
  Papp at 500 uM: 1.81 ± 0.22 ×10⁻⁶ cm/s
[4]; Well 1 / %R, Well 1
  % recovery: 83% and 93%
[4]; Well 2 / %R, Well 2
  % recovery: 93% and 94%
[4]; Well 3 / %R, Well 3
  % recovery: 85% and 86%
[4]; Well 4 / %R, Well 4
  % recovery: 86% and 90%
[4]; Well 5 / %R, Well 5
  % recovery: 90% and 93%
[5]; [8]
  donor concentration after incubation: 366 µM and 419 µM
[5]; [9]
  donor concentration after incubation: 425 µM and 429 µM
[5]; [10]
  donor concentration after incubation: 387 µM and 389 µM
[5]; [11]
  donor concentration after incubation: 390 µM and 406 µM
[5]; [12]
  donor concentration after incubation: 412 µM and 419 µM
[6]; [23]
  Acceptor Concentration: 50.2 µM
[6]; [24]
  Acceptor Concentration: 38.4 µM
[6]; [25]
  Acceptor Concentration: 40.2 µM
[6]; [26]
  Acceptor Concentration: 40.8 µM
[6]; [27]
  Acceptor Concentration: 37.5 µM
[6]; [28]
  Acceptor Concentration: 47.1 µM
[6]; [29]
  Acceptor Concentration: 40.3 µM
[6]; [30]
  Acceptor Concentration: 41 µM
[6]; [31]
  Acceptor Concentration: 45.3 µM
[6]; [32]
  Acceptor Concentration: 48 µM
[7]; [33]
  Papp: 2.29 ×10⁻⁶ cm/s
[7]; [34]
  Papp: 1.55 ×10⁻⁶ cm/s
[7]; [35]
  Papp: 1.77 ×10⁻⁶ cm/s
[7]; [36]
  Papp: 1.78 ×10⁻⁶ cm/s
[7]; [37]
  Papp: 1.56 ×10⁻⁶ cm/s
[7]; [38]
  Papp: 1.9 ×10⁻⁶ cm/s
[7]; [39]
  Papp: 1.61 ×10⁻⁶ cm/s
[7]; [40]
  Papp: 1.79 ×10⁻⁶ cm/s
[7]; [41]
  Papp: 1.89 ×10⁻⁶ cm/s
[7]; [42]
  Papp: 1.94 ×10⁻⁶ cm/s

## CCCCC[C@H](NC(=O)[C@@H](C)N(C)C(=O)OC(C)(C)C)C(=O)N(C)[C@H](C)C(=O)O[C@@H](CCCCC)C(=O)N(C)[C@H](C)C(=O)O[C@@H](CCCCC)C(=O)N(C)[C@H](C)C(=O)O[C@@H](CCCCC)C(=O)OCc1ccccc1 [Compound L2.1] (Boc-[dNMeA][Ahp(2)][dNMeA][X1][dNMeA][X1][dNMeA]-X2)
[1]; Well 1 / %T, Well 1
  %T: 0.47% and 0.5%
[1]; Well 2 / %T, Well 2
  %T: 0.47% and 0.52%
[1]; Well 3 / %T, Well 3
  %T: 0.49%
[1]; Well 4 / %T, Well 4
  %T: 0.48% and 0.5%
[1]; Well 5 / %T, Well 5
  %T: 0.49% and 0.5%
[2]
  LogPapp: -5.40 ± 0.05
  Δ % diffusion: ↑19%
[3]
  Papp at 500 uM: 3.97 ± 0.46 ×10⁻⁶ cm/s
[4]; Well 1 / %R, Well 1
  % recovery: 97% and 99%
[4]; Well 2 / %R, Well 2
  % recovery: 94%
[4]; Well 3 / %R, Well 3
  % recovery: 96%
[4]; Well 4 / %R, Well 4
  % recovery: 92% and 84%
[4]; Well 5 / %R, Well 5
  % recovery: 98% and 88%
[5]; Well 1 / [donor], Well 1
  donor concentration after incubation: 402 µM and 418 µM
[5]; Well 2 / [donor], Well 2
  donor concentration after incubation: 377 µM and 393 µM
[5]; Well 3 / [donor], Well 3
  donor concentration after incubation: 388 µM and 368 µM
[5]; Well 4 / [donor], Well 4
  donor concentration after incubation: 363 µM and 335 µM
[5]; Well 5 / [donor], Well 5
  donor concentration after incubation: 395 µM and 356 µM
[6]; [13]
  Acceptor Concentration: 83.2 µM
[6]; [14]
  Acceptor Concentration: 94.6 µM
[6]; [15]
  Acceptor Concentration: 90.8 µM
[6]; [16]
  Acceptor Concentration: 98.2 µM
[6]; [17]
  Acceptor Concentration: 93.2 µM
[6]; [18]
  Acceptor Concentration: 76.9 µM
[6]; [19]
  Acceptor Concentration: 74.6 µM
[6]; [20]
  Acceptor Concentration: 97.5 µM
[6]; [21]
  Acceptor Concentration: 85.3 µM
[6]; [22]
  Acceptor Concentration: 83.9 µM
[7]; Papp (x 10^-6 cm/s) / [row 1]
  Papp: 3.57 ×10⁻⁶ cm/s
[7]; Papp (x 10^-6 cm/s) / [row 2]
  Papp: 4.24 ×10⁻⁶ cm/s
[7]; Papp (x 10^-6 cm/s) / [row 3]
  Papp: 3.98 ×10⁻⁶ cm/s
[7]; Papp (x 10^-6 cm/s) / [row 4]
  Papp: 4.55 ×10⁻⁶ cm/s
[7]; Papp (x 10^-6 cm/s) / [row 5]
  Papp: 4.01 ×10⁻⁶ cm/s
[7]; Papp (x 10^-6 cm/s) / [row 6]
  Papp: 3.22 ×10⁻⁶ cm/s
[7]; Papp (x 10^-6 cm/s) / [row 7]
  Papp: 3.32 ×10⁻⁶ cm/s
[7]; Papp (x 10^-6 cm/s) / [row 8]
  Papp: 4.45 ×10⁻⁶ cm/s
[7]; Papp (x 10^-6 cm/s) / [row 9]
  Papp: 4.33 ×10⁻⁶ cm/s
[7]; Papp (x 10^-6 cm/s) / [row 10]
  Papp: 4.04 ×10⁻⁶ cm/s
